From PMC10267539 (EJNMMI Radiopharmacy and Chemistry, 2023)

What was measured:
CXCR4 [1] = target: CXCR4 (UniProt P61073); experiment: radioligand binding
CXCR4 [2] = target: CXCR4 (UniProt P61073); experiment: competitive binding assay on cells with a fluorescent ligand
plaque inflammation = experiment: F-18 FDG PET of plaque inflammation (carotid TBR); type: in vivo, human
Procedure: Materials and methods: We retrospectively analyzed F-18 FDG PET scans of patients treated with I-131 rituximab for the first time for relapsed or refractory CD20(+) B cell lymphoma. F-18 FDG PET scans were performed before (PET1), 5 days (PET2), and 1 m (PET3) after the administration of I-131 rituximab. […] TBRs measured in PET1, PET2, and PET3 were designated as TBR1, TBR2, and TBR3, respectively. Statistical analysis was performed using the Wilcoxon-test for comparison between the groups. In addition, we divided patients into 2 groups (patients with higher TBR1 versus equal to or lower TBR1 than the median value of TBR1) and compared TBRs on each PET dataset.

[3] = based on toxicity study in Wistar rats
Procedure: For DOTA-MGS5, a toxicity study in Wistar rats was carried out in a GLP-compliant laboratory.

fibrin = fibrin (UniProt P02679); experiment: binding of the radiolabelled pept
Sequence of fibrin (P02679 whole entry, looked up): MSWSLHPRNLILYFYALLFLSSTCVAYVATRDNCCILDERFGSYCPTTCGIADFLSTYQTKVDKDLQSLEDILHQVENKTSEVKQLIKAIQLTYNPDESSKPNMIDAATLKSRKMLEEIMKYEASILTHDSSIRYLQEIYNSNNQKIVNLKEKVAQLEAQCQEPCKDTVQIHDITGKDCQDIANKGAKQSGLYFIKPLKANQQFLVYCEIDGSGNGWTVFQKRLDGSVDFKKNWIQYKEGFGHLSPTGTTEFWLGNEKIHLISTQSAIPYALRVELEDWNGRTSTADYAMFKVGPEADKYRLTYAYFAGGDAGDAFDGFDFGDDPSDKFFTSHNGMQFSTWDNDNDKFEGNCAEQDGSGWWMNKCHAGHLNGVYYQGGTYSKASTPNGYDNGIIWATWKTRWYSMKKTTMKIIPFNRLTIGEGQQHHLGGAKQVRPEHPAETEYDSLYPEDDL

[4] = 37 °C, after 6 h
Procedure: (§1) The stability of the radiolabeled peptide in human plasma and normal saline as well as partition coefficient (LogP) was determined. The effect of the peptide on platelet aggregation and the percent of binding radiopeptide to fibrin were studied.

[5] = target: glucagon-like peptide-1 (GLP-1) receptor (UniProt P43220); experiment: competitive binding assay on cells
Sequence of glucagon-like peptide-1 (GLP-1) receptor (P43220 24-463): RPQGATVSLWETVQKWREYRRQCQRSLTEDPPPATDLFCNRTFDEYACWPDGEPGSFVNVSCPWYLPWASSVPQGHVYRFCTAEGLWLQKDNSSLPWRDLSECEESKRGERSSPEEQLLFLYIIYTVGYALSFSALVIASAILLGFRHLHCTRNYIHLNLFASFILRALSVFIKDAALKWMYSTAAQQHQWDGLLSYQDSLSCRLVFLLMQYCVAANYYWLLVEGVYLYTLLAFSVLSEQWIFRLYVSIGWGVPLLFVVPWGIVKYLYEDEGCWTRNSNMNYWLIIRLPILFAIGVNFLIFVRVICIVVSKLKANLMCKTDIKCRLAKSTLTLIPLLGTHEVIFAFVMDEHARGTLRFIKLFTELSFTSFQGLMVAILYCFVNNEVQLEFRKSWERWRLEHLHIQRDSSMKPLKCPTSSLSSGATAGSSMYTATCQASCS

[6] = In vitro stability in PBS and serum; type: in vitro ADME; conditions: 37 °C, after 5 h, starting radiochemical purity 94.3%
Procedure: (§2) The in vitro stability of the corresponding radiocomplexes was determined in PBS and human serum at 37 °C. […] Cell viability (10^4 cells/well) and clonogenic assay (10^3 cells/well) was performed with [^213Bi]Bi-3p-C-NETA-TATE using the same cell line.

[7] = test system: SSTR2 expressing cells (BON-1.SSTR2); experiment: Cell binding and internalization; type: cell-based; conditions: BON-1.SSTR2, 60 min incubation
Procedure: as §2

BON-1.SSTR2 = experiment: Clonogenic assay; type: cell-based
Procedure: as §2

[8] = target: human cholecystokinin-2 receptor (CCK2R) (human) (UniProt P32239); experiment: radioligand binding
Sequence of human cholecystokinin-2 receptor (CCK2R) (human) (P32239 whole entry): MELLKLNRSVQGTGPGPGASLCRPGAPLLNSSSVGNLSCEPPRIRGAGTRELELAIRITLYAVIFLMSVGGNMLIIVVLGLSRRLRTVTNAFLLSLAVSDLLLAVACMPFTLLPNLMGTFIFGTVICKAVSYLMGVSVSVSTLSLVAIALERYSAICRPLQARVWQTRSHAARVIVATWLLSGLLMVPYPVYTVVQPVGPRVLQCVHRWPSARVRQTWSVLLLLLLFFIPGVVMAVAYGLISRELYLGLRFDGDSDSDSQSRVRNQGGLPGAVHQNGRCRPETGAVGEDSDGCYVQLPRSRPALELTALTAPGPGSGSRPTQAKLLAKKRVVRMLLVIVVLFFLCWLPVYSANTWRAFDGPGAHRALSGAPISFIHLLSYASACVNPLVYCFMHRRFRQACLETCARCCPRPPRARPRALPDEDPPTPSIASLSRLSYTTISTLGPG

[9] = target: rat cholecystokinin-2 receptor (CCK2R) (rat) (UniProt P30553); experiment: radioligand binding
Sequence of rat cholecystokinin-2 receptor (CCK2R) (rat) (P30553 whole entry): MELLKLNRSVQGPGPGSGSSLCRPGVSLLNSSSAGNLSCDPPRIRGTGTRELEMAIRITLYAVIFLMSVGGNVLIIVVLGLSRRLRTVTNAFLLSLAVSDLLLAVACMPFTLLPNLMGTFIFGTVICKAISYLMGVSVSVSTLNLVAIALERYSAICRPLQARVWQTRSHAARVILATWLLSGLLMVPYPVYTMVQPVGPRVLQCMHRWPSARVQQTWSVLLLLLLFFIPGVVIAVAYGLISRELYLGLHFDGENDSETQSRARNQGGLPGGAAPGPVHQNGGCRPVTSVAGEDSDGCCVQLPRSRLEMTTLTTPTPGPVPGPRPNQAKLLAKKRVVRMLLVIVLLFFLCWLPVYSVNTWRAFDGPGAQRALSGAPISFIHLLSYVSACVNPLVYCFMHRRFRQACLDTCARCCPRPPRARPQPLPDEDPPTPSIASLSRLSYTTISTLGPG

HER2 = target: T1, HER2 (Homo sapiens, UniProt P04626); experiment: Binding by flow cytometry; conditions: BT-474 / MCF-7, cell line not stated
T1 construct: flow cytometry in BT-474 (high HER2 density) and MCF-7 (low HER2 density); endogenous in cells; host or cells: BT-474 and MCF-7 cells

Sequence of CXCR4 (P61073 whole entry): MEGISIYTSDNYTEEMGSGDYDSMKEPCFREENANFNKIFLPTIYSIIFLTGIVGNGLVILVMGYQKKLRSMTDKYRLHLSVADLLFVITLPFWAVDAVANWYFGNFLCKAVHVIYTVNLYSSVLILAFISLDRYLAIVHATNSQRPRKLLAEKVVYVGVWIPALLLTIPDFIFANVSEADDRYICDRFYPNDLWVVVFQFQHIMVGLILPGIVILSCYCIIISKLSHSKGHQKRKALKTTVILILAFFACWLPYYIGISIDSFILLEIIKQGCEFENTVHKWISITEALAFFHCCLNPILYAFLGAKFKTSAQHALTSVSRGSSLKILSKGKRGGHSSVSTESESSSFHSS
Procedure for platelet aggregation: as §1

## AlF-NOTA-DV1-k-(DV3) (peptide)
CXCR4 [1]
  total-bound fraction (u87.CXCR4 cells): 6%
CXCR4 [2]
  IC50: 5.3 nM

## I-131 rituximab: radioimmunotherapy for CD20(+) B cell lymphoma
Plaque inflammation; all 32 patients, PET1 before I-131 rituximab, mean and SD
  TBR1: 1.49 ± 0.28
Plaque inflammation; all 32 patients, PET2 5 days after, mean and SD, P = 0.008 vs TBR1
  TBR2: 1.36 ± 0.21
Plaque inflammation; all 32 patients, PET3 1 m after, mean and SD, P = 0.002 vs TBR1
  TBR3: 1.35 ± 0.19
Plaque inflammation; patients with higher TBR1 (n = 16), PET1
  mean TBR: 1.69
Plaque inflammation; patients with higher TBR1 (n = 16), PET2, P = 0.001
  mean TBR: 1.46
Plaque inflammation; patients with higher TBR1 (n = 16), PET3, P < 0.001
  mean TBR: 1.42
Plaque inflammation; patients with lower TBR1 (n = 16), PET1
  mean TBR: 1.29
Plaque inflammation; patients with lower TBR1 (n = 16), PET2
  mean TBR: 1.26
Plaque inflammation; patients with lower TBR1 (n = 16), PET3
  mean TBR: 1.29

## CCCC[C@@H](C(=O)N[C@@H](CC(=O)O)C(=O)N[C@@H](Cc1cccc2ccccc12)C(N)=O)N(C)C(=O)[C@H](Cc1c[nH]c2ccccc12)NC(=O)CNC(=O)[C@H](Cc1ccc(O)cc1)NC(=O)[C@H](C)NC(=O)[C@@H](CCC(=O)O)NC(=O)CN1CCN(CC(=O)O)CCN(CC(=O)O)CCN(CC(=O)O)CC1 [DOTA-MGS5]
[3]
  maximum dose defined for the first therapeutic use: 100 µg

## HYNIC-Gly-Pro-Lys-Gly-Ala-Ala-Asp peptide
fibrin
  other: 71.4%

## HYNIC-Gly-Pro-Lys-Gly-Ala-Ala-Asp [HYNIC-GPLGAAD]
[4]
  stability in human plasma: 95%
Platelet aggregation
  effect on platelet aggregation: no effect on platelet aggregation

## NOTA-exendin-4 (from UniProt P26349 48-87) (peptide; other documents disagree on this pair)
[5]
  affinity: < 11 nM

## C[C@@H](O)[C@H](NC(=O)[C@@H]1CSSC[C@H](NC(=O)[C@@H](Cc2ccccc2)NC(=S)Nc2ccc(CCCC(CN3CCN(CC(=O)O)CCN(CC(=O)O)CC3)N(CC(=O)O)CC(=O)O)cc2)C(=O)N[C@@H](Cc2ccc(O)cc2)C(=O)N[C@H](Cc2c[nH]c3ccccc23)C(=O)N[C@@H](CCCCN)C(=O)N[C@@H]([C@@H](C)O)C(=O)N1)C(=O)O (stereo partly shown) [[^213Bi]Bi-3p-C-NETA-TATE, metal not drawn]
[6]; PBS
  intact radiocomplex: 90%
[6]; human serum, read-out: intact radiocomplex
  remaining at 5 h: 90%
[7]
  cell binding: 3.3 ± 0.5%
  internalized share of cell binding: 39.2%
BON-1.SSTR2
  activity required for cell surviving fraction of 0.1 (SF0.1): 0.1 MBq

## DOTA-MI-exendin-4 (from UniProt P26349 48-87) (peptide)
[5]
  affinity: < 11 nM

## DOTA-exendin-4 (from UniProt P26349 48-87) (peptide; other documents disagree on this pair)
[5]
  affinity: < 11 nM

## NOTA-MI-exendin-4 (from UniProt P26349 48-87) (peptide)
[5]
  affinity: < 11 nM

## [^177Lu]Lu-DOTA-MGS5 (peptide)
[8]
  other: 68%
[9]
  other: 48.6%

## NOTA-rituximab: control IgG
HER2
  KD: no binding

## AlF-NOTA-(2×)DV1(c11sc12s) (peptide)
CXCR4 [2]
  IC50: 1.3 nM
